According to patent publication EP1133986A1, “Use of deramciclane for the treatment of anxiety and depression” (priority 2000, dated 2001):
Read-outs that look alike come from different tables or passages of the source.

Experiments:
[1] = design: species or system human; conditions: in vivo
Experimental: A comparative pharmacokinetic study of orally administered deramciclane in rats, dogs, rabbits and humans (Klebovich et al Pharm. Pharmacol. Commun., 4: 129-136, 1998), it was shown that the plasma concentration curves obtained after the administration of a single 3mg/kg oral dose of deramciclane to rats (dogs, rabbits) and human show considerable species specific differences. […] Thus a 40-times lower oral dose of deramciclane could be used in man to result in the same maximal plasma concentration as in rat. […] Thus over 300 times lower oral doses should result in equal exposure in humans than in rats. Basing only the Cmax difference between rat and man, it can be predicted that considerably lower doss should be centrally acitive in humans than in rat. The minimum oral effective anti-anxiety dose in rats was 1 mg/kg (1-30mg/kg the full range; see above), i.e. in a 70 kg-man this would mean 70 mg dose. […] This would result in 70 mg/40= 1.75 mg (i.e. 0.025 mg/kg) as an effective dose in man.

[2] = test system: anxiety, specifically GAD; assay: randomised placebo-controlled double-blind study in GAD, Hamilton Anxiety Scale (HAM-A); type: in vivo, humans; conditions: GAD patients
Experimental: (§1) The efficacy of deramciclane in the treatment of anxiety, specifically GAD, was studied in a randomised placebo-controlled double-blind study. In addition, the dose-dependency of the effects of deramciclane was evaluated. Total of 208 patients were included in the study. The subjects were randomly assigned to four parallel groups to receive one tablet twice daily (b.i.d) of a placebo, 5mg (=10mg/day), 15mg (=30mg/day), or 30mg (=60mg/day) deramciclane. The study started with a one-week placebo run-in period, followed by an eight-week placebo-controlled active treatment and a two-week placebo washout period.
The efficacy of deramciclane on anxiety symptoms was studied by the efficacy variable Hamilton Anxiety Scale (HAM-A), analyzing the change in the score and using responder criterion (at least 50 % reduction in HAM-A total score).

depressive symptoms = assay: randomised placebo-controlled double-blind study in GAD, Montgomery Åsberg Depression Rating Scale (MADRS); type: in vivo, humans; conditions: GAD patients
Experimental: as §1
The efficacy of deramciclane on depressive symptoms was studied using Montgomery Åsberg Depression Rating Scale (MADRS).

serotonin 5HT2A-receptor [3] = biological target: T1, serotonin 5HT2A-receptor (Homo sapiens, UniProt P28223); conditions: cited from earlier work
T1 sequence (P28223 whole entry): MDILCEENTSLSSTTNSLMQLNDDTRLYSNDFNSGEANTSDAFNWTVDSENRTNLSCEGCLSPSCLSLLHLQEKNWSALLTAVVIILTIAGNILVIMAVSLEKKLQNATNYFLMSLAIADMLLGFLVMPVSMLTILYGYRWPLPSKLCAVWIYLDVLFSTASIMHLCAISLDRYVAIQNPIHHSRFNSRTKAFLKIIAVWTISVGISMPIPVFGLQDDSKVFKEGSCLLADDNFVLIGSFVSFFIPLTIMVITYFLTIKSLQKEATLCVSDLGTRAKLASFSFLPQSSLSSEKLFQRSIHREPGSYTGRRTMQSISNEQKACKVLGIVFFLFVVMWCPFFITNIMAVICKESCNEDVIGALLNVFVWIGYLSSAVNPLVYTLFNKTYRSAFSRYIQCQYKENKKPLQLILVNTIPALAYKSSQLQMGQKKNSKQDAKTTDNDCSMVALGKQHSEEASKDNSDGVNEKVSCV

[4] = biological target: T2, serotonin 5-HT2C-receptor (Homo sapiens, UniProt P28335); conditions: cited from earlier work
T2 sequence (P28335 33-458): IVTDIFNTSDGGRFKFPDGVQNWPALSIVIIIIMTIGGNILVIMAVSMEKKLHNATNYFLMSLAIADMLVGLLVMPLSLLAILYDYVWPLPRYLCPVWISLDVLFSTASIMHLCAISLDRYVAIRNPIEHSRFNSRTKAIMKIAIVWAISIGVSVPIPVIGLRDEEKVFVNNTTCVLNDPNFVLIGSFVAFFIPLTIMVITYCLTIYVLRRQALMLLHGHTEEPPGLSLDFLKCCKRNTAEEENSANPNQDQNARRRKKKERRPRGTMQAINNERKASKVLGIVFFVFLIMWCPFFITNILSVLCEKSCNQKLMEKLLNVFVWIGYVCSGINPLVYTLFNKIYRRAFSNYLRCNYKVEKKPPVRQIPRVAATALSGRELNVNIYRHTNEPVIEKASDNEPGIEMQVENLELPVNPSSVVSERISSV

rats [5] = conditions: cited from earlier work
rats [6] = conditions: single intraperitoneal administration; cited from earlier work
mice [7] = conditions: single subcutaneous administration, 3 mg/kg; cited from earlier work
rats [8] = conditions: cited from earlier work; remark: listed apart in the source
rat = conditions: intraperitoneally 1 or 10 mg/kg, 8 times, twice a day, before the test; cited from earlier work
mice [9] = conditions: oral doses 48-160 mg/kg; cited from earlier work
rats [10] = conditions: oral doses of 25 and 100 mg/kg; cited from earlier work
[11] = rats, 3 mg/kg, cited from earlier work
[12] = rat, cited from earlier work
[13] = human, cited from earlier work
[14] = humans, cited from earlier work; for Cmin and Cmax range: repeated administration for one week
serotonin 5HT2A-receptor [15] = biological target: T1, serotonin 5HT2A-receptor; design: serotonin 5-HT2A-receptors in frontal cortex of healthy male volunteers; from tissue; host or cells: frontal cortex of living healthy male volunteers; conditions: humans, brain 5HT2A-receptor, single oral dose; cited from earlier work
[16] = single oral administration, 3 mg/kg

CN(C)CCO[C@]1(c2ccccc2)C[C@H]2CC[C@]1(C)C2(C)C [deramciclane, (lR,2S,4R)-(-)-2-[N,N-(dimethylaminoethoxy)]-2-phenyl-1,7,7-trimethyl-bicyclo[2.2.1]heptane]
factor by which oral dose in man can be lower for the same maximal plasma concentration as in rat [1]: 40 times | factor by which oral doses in humans can be lower for equal exposure as in rats [1]: over 300 times | HAM-A score compared with placebo ([2]; 5 mg b.i.d, eight weeks): No difference | responders (at least 50 % reduction in HAM-A scale) ([2]; 5 mg b.i.d. (n=31), placebo 54 %): 57% | decrease of HAM-A score from baseline ([2]; 15 mg b.i.d, eight weeks, p=0.006 versus placebo): 14.5 points | responders (at least 50 % reduction in HAM-A scale) ([2]; 15 mg b.i.d. (n=39), p=0.020 versus placebo): 76% | responders (at least 50 % reduction in HAM-A scale) ([2]; 30 mg b.i.d. (n=37)): 70% | decrease of HAM-A score from baseline ([2]; 30 mg b.i.d., eight weeks, not significant versus placebo): 14.5 points | effect on MADRS scores (depressive symptoms; 5 mg b.i.d): ineffective | decrease of MADRS scores (depressive symptoms; 15mg b.i.d, p= 0.028): 7.7 points | decrease of MADRS scores (depressive symptoms; 30 mg b.i.d, p= 0.016): 8.0 points | antagonism of the receptor (serotonin 5HT2A-receptor [3]): potent antagonist | binding affinity (serotonin 5HT2A-receptor [3]; in vitro): high affinity | antagonism of the receptor [4]: potent antagonist | binding affinity ([4]; in vitro): high affinity | minimum oral effective anti-anxiety dose (rats [5]; oral): 1 mg/kg | activity in punished drinking test (rats [5]; single oral administration, 1 mg/kg and 10 mg/kg): active | minimum effective dose (social interaction time) (rats [6]): 0.7 mg/kg | activity in two compartment test (mice [7]): active | caerulein-induced decrease in exploratory behavior (rats [8]; intraperitoneal dose of 0.5 mg/kg): able to attenuate | effect in elevated plus maze test (rats [8]; rats, single intraperitoneal doses 0.1 mg/kg - 5 mg/kg): totally ineffective | helpless behaviour induced by inescapable electric foot shocks (rat): dose dependently attenuated | effect on tetrabenazine-induced ptosis (mice [9]): negligible | effect in forced swimming test (rats [10]): clearly ineffective | radioactivity in several organs including blood and the brain ([11]; intravenous administration): high radioactivity | radioactivity in organs, especially in the brain ([11]; oral administration, compared with intravenous): substantially lower | peak plasma concentration (Cmax) ([12]; single 3 mg/kg oral dose): 5.4 ng/mL | mean AUC 0 - ∞ [12, 16]: 11.9 ng·h/mL | peak plasma concentration (Cmax) ([13]; single 3 mg/kg oral dose): 217.5 ng/mL | mean AUC 0 - ∞ [13, 16]: 3737.8 ng·h/mL | Cmin and Cmax range ([14]; 20 mg daily dose): 16 to 33 ng/mL | Cmin and Cmax range ([14]; 60 mg daily dose): 48 to 91 ng/mL | Cmax ([14]; single oral administration of 20 mg): 24 ± 9.4 ng/mL | Cmax ([14]; single oral administration of 30 mg): 27 ± 6.1 ng/mL | plasma concentration at 50% receptor occupancy (serotonin 5HT2A-receptor [15]): ~21 ng/mL | plasma concentration at 90% receptor occupancy (serotonin 5HT2A-receptor [15]): about 70 ng/ml
